± gives the expanded uncertainty stated by the source.

The conditions of this series: 298.15 K; 101.33 kPa; Liquid.
As to `OCC(F)(F)F` [2,2,2-trifluoroethanol], the mass density is recorded as 1382.4 ± 1.6 kg/m3.
Take `CC(C)O` [propan-2-ol]: the mass density is given as 781.4 ± 1.1 kg/m3.
With `C1CCCCC1` [cyclohexane], the mass density turned out to be 774 ± 1 kg/m3.
With `CCO` [ethanol] the figure was 785.2 ± 1 kg/m3.

The term mass density denotes mass per unit of volume.

For the origin of these results see the NIST ThermoML archive (doi:10.1021/je700741x).
